The target of one test is ATR/ATRIP complex (Homo sapiens (Human), UniProt Q13535). Put plainly: ATR/ATRIP enzymatic assay (Caliper-based). The class given is biochemical. As to conditions: FAM-labeled RAD17 peptide, ATP; read-out: ATR/ATRIP Enzyme IC50. On the procedure: Human full-length FLAG-TEV-ATR and His6-ATRIP were co-expressed in HEK293 cells. The cell pellet (20 g) was harvested and lysed in 100 mL of lysis buffer (20 mM Tris-HCl pH 7.5 at room temperature, 137 mM NaCl, 10% glycerol, 1 mM DTT, 1% (v/v) Tween-20, 0.1% (v/v) NP-40, complete protease inhibitor cocktail tablets, phosphatase inhibitor cocktail tablets, 2 mM MgCl2, 0.2 mM EDTA, and 1 mM ATP). After sonication and centrifugation, the supernatant was incubated at 4° C. for 3 hours with 1 mL of anti-FLAG resin (Sigma catalog # A2220) that had been pre-equilibrated in buffer A (20 mM Tris-HCl pH 7.5 at room temperature, 137 mM NaCl, 10% glycerol, 1 mM DTT, 2 mM MgCl2, and 0.2 mM EDTA). The sample was loaded into a column, and then washed with buffer A three times. Protein was subsequently eluted with 2 ml of buffer B (buffer A+200 μg/ml 3×FLAG peptide).
Sequence of ATR/ATRIP complex (Q13535 whole entry): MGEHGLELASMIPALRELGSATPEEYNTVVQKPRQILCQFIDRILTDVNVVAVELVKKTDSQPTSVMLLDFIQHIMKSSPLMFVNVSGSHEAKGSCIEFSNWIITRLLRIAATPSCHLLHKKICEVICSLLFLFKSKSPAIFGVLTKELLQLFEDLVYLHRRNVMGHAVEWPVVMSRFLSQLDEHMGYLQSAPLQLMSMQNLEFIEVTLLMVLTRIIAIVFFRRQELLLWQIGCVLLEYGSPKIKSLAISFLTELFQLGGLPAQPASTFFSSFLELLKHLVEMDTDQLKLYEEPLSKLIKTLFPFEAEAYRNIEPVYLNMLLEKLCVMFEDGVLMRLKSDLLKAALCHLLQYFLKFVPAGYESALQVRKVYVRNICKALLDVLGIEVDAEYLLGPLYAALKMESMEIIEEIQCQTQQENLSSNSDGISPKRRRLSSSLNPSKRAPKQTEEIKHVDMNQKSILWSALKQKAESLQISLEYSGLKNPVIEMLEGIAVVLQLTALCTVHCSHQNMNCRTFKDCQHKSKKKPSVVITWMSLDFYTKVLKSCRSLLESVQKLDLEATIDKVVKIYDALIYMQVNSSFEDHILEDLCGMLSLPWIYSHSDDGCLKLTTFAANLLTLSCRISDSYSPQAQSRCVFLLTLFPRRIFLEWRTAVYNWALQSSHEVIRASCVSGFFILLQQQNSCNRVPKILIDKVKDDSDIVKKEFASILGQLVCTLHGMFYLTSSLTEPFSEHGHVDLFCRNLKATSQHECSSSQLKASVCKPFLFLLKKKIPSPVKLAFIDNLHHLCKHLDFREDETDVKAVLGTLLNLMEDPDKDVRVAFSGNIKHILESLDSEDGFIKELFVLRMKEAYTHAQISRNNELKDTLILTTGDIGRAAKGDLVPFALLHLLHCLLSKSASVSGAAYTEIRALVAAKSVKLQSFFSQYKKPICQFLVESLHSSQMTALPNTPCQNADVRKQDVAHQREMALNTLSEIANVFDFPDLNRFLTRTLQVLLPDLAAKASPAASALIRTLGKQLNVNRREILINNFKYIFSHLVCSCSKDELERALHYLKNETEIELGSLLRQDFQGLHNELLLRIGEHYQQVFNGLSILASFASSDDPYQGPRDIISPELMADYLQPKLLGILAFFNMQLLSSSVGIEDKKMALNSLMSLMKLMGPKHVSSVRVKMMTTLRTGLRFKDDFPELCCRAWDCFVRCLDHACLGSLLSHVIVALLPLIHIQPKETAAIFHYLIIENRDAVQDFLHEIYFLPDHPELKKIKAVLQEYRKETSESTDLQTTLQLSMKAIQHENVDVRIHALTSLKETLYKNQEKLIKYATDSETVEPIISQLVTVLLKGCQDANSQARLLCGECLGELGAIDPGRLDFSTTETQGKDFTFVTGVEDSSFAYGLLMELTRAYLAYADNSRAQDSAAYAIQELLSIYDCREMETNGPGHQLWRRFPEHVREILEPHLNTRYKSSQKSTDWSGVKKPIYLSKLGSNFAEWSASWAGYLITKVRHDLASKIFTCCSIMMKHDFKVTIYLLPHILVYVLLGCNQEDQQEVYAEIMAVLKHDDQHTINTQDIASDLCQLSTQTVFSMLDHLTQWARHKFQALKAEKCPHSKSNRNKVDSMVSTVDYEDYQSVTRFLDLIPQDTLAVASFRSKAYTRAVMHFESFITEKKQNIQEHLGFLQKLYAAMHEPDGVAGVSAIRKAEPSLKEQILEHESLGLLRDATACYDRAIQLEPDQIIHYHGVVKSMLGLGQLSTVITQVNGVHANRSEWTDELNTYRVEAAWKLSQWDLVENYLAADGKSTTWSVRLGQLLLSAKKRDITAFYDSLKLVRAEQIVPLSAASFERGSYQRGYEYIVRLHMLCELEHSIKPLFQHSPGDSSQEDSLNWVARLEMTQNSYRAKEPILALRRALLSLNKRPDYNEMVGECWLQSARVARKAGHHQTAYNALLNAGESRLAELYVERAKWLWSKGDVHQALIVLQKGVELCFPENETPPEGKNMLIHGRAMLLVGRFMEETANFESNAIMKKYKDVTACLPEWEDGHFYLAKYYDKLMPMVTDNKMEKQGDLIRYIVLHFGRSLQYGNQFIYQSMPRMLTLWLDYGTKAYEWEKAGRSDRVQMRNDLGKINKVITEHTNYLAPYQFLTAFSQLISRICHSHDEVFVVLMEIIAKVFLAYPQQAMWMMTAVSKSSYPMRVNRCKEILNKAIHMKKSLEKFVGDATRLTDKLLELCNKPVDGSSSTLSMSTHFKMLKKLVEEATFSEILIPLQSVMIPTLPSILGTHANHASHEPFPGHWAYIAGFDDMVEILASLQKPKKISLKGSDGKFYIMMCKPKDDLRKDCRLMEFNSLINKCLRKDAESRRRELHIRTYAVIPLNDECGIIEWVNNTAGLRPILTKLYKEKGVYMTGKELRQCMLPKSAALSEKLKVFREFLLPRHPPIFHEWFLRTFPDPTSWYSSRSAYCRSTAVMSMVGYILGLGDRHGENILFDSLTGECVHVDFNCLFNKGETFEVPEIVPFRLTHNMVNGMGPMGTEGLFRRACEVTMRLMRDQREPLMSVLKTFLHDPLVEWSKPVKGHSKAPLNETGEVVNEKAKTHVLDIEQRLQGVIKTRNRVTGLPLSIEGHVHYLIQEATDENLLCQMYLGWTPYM
Sequence of ATR/ATRIP complex (Q8WXE1 whole entry partner): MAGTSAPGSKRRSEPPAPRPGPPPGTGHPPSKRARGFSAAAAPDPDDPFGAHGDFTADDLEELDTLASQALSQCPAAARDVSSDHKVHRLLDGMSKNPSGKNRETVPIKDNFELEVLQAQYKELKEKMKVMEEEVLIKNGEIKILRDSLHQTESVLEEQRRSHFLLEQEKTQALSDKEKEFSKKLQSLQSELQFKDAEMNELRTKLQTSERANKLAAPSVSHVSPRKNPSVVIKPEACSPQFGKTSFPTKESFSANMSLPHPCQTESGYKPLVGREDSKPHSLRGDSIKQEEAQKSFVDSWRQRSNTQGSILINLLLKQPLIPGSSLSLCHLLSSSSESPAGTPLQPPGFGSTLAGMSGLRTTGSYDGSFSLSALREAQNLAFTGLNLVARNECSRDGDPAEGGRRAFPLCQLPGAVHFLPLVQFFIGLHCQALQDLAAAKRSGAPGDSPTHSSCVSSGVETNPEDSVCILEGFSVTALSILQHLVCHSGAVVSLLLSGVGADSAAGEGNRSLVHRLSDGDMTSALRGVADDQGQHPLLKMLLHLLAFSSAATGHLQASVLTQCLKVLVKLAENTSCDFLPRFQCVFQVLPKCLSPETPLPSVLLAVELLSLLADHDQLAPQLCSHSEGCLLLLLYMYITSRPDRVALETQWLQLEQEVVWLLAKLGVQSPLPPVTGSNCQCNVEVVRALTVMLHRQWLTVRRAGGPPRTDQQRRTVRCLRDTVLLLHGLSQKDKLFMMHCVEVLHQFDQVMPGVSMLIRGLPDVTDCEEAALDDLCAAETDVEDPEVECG
The ability of new chemical matter to inhibit the ATR catalytic activity in this ATR/ATRIP complex was assessed a Caliper-based assay. A 2× enzyme solution (i.e., 4 nM enzyme) was prepared using 1× Kinase Reaction Buffer (25 mM HEPES pH 8, 0.0055% Brij-35, 10 mM MnCl2, and 1 mM DTT). A 2× peptide solution was then prepared consisting of 10 uM FAM-labeled RAD17 peptide (GL Biochem, catalog #524315) in 1× Kinase Reaction Buffer supplemented with 2 μM ATP. 10 μL of the 2× enzyme solution was transferred to an assay plate containing 60 nL of test compound (from a 3× serial dilution) in 100% DMSO. Following a 30 minute incubation at 28° C., 10 μL of the 2× peptide solution was then transferred to the same assay plate. The reaction was allowed to incubate at 28° C. for 6 hours. After adding 30 μL of stop buffer (100 mM HEPES pH 7.5, 0.015% Brij-35, 0.2% Coating-3 Reagent (PerkinElmer, catalog # PN760050), and 50 mM EDTA), data were collected on a Caliper instrument. […] IC50 values were calculated using the following equation in XLFit: Y=Bottom+(Top-Bottom)/1+(IC50/X)^HillSlope).

The subject of test [1] is ATR-driven phosphorylation of Chk1 kinase at Serine 345. Put plainly: pCHK1 cellular assay (CHK1 p-Ser345 AlphaScreen SureFire) in HT-29 cells. The class given is cell-based. As to conditions: 4-nitroquinoline N-oxide 12 uM, read-out: pCHK1 Cell IC50. The procedure: Inhibitors of ATR kinase are effective at inhibiting the ATR-driven phosphorylation of the downstream target Chk1 kinase at Serine 345, following the addition of 4-nitroquinoline N-oxide, a chemical used to induce DNA damage. Cellular IC50 for the inhibitors of ATR described herein were measured in HT-29 colorectal adenocarcinoma cells. HT-29 cells were routinely maintained in McCoy's 5A media (ATCC Catalog #30-2007) supplemented with 10% fetal bovine serum (Sigma Catalog # F2442) and 1× Penicillin-Streptomycin (Gibco Catalog #15140-122) using a humidified incubator (37° C., 5% CO2, and ambient O2).
In preparation for the CHK1 (p-Ser345) ALPHASCREEN® SUREFIRE® assay, cells were harvested and resuspended in McCoy's 5A media supplemented with 10% fetal bovine serum and 1× Penicillin-Streptomycin. Cells were seeded onto a 384-well black CELLSTAR® Tissue Culture Plate (VWR Catalog #89085-314) at a density of 13,000 cells/well in a volume of 40 uL. The microplate was incubated overnight (approximately 20 hours) at 37° C. with 5% CO2 and ambient O2. Stock solutions of the test compounds were prepared in 100% DMSO (Sigma, Catalog # D2650) and serially diluted 1:3 using 100% DMSO. Compounds were additionally diluted 1:33 in culture medium, and 10 ul/well were transferred to the tissue culture plate. Following the compound addition the microplate was incubated at 37° C. for 90 minutes. 10 uL of 4-nitroquinoline N-oxide (Sigma Aldrich Catalog # N8141-1G) diluted in media (final concentration 12 uM) were added to the tissue culture plate followed by a 120 minute incubation at 37° C. The cells were then washed with PBS and lysed using 10 uL/well SUREFIRE® Kit lysis buffer diluted to 1× in water (PerkinElmer Catalog # TGRCHK1S50K), with mixing on an orbital shaker at 500 rpm for 20 min at RT. Lysates were frozen at −20° C. overnight.
4 uL/well of lysate was then transferred from the tissue culture plate to a 384-well, white, low volume, PROXIPLATE™ (PerkinElmer Catalog #600828). 5 uL/well of the acceptor bead solution, prepared by diluting SUREFIRE® Kit activation buffer (PerkinElmer Catalog # TGRCHK1S50K) and ALPHASCREEN® Protein A acceptor beads (PerkinElmer Catalog #6760617R) in SUREFIRE® Kit reaction buffer (PerkinElmer Catalog # TGRCHK1S50K), were added to the lysates under subdued light and incubated at room temperature for 120 min. 2 uL/well of the donor bead solution, prepared by diluting ALPHASCREEN® Streptavidin donor beads (PerkinElmer Catalog #6760617R) in SUREFIRE® Kit dilution buffer (PerkinElmer Catalog # TGRCHK1S50K), were added under subdued light and incubated at room temperature for an addition 120 minutes. The pCHK1 ALPHASCREEN® signal was measured using an ENVISION® plate reader (PerkinElmer). IC50 values were calculated using a four-parameter logistic curve fit using Genedata Screener software. Percent of control for each compound concentration was calculated by the following formula: 100*(Compound-Min)/(Max-Min) where “Max” is the high control, DMSO, and “Min” is the low control, 5 uM ATR inhibitor.

The mark [2] stands for this setting: Homo sapiens, HT-29, HT-29 colorectal adenocarcinoma cells.

Like-named read-outs stand apart in the source and are kept apart here.

`C[C@@H]1Cc2ncnc(C3CCCN(S(C)(=O)=O)C3)c2CN1c1cc(Cl)nc2[nH]ccc12` (single isomer, unassigned) [Example 51b]: the IC50 on ATR/ATRIP complex was determined as 2200 nM.
In the case of `C[C@@H]1Cc2ncnc([C@H]3CCN(S(C)(=O)=O)C(C)(C)C3)c2CN1c1ccnc2[nH]ccc12` (single isomer, unassigned) [Example 48b], in test [1] (setting [2]), the IC50 turned out to be 79 nM.
Take `C[C@@H]1Cc2ncnc(N3CCC(S(C)(=O)=O)CC3)c2CN1c1cc(Cl)nc2[nH]ccc12` [Example 9, (R)-6-(6-Chloro-1H-pyrrolo[2,3-b]pyridin-4-yl)-7-methyl-4-(4-(methylsulfonyl)-piperidin-1-yl)-5,6,7,8-tetrahydropyrido[4,3-d]pyrimidine bis(trifluoroacetate)]: in test [1] (HT-29 colorectal adenocarcinoma cells), the IC50 was 25 nM.
For the compound `C[C@@H]1Cc2ncnc([C@H]3CCN(S(C)(=O)=O)C3)c2CN1c1ccnc2[nH]ccc12` [Example 57b, (R)-7-methyl-4-((S)-1-(methylsulfonyl)pyrrolidin-3-yl)-6-(1H-pyrrolo[2,3-b]pyridin-4-yl)-5,6,7,8-tetrahydropyrido[4,3-d]pyrimidine], the IC50 in test [1] (setting [2]) was determined as 394 nM.
`C[C@@H]1Cc2ncnc(N3C[C@H]4CC[C@@H](C3)[C@H]4NS(C)(=O)=O)c2CN1c1ccnc2[nH]ccc12` [Example 74, N-((1R,5S,8R)-3-((R)-7-methyl-6-(1H-pyrrolo[2,3-b]pyridin-4-yl)-5,6,7,8-tetrahydropyrido[4,3-d]pyrimidin-4-yl)-3-azabicyclo[3.2.1]octan-8-yl)methanesulfonamide]: the results for the IC50 (on ATR/ATRIP complex; in test [1] (setting [2])) were 279 nM and 31 nM, respectively.
Turning to `C[C@@H]1Cc2ncnc(C3CCCN(S(C)(=O)=O)C3)c2CN1c1cc(Cl)nc2[nH]ccc12` (single isomer, unassigned) [Example 51a], the IC50 at ATR/ATRIP complex is 561 nM.
Regarding `C[C@@H]1Cc2ncnc(N3CCC(S(C)(=O)=O)CC3)c2CN1c1ccnc2[nH]ccc12` [Example 88, (R)-7-methyl-4-(4-(methylsulfonyl)piperidin-1-yl)-6-(1H-pyrrolo[2,3-b]pyridin-4-yl)-5,6,7,8-tetrahydropyrido[4,3-d]pyrimidine], the IC50 in test [1] (setting [2]) was found to be 85 nM.

The values are drawn from patent US10745420B2, “Tetrahydropyrido[4,3-d]pyrimidine inhibitors of ATR kinase” (Board of Regents, The University of Texas System, priority 2017, dated 2020).
